We go through 32 molecules from US12319659B2, “Selective ligand for dopamine D3 receptor, preparation method therefor, and pharmaceutical application thereof” (Shenzhen Linglan Bio-Pharmaceutical Technology Co., Ltd, priority 2017, dated 2025).

Where a name gives a salt, the structure may show the parent alone. Read-outs that look alike come from different tables or passages of the source.

The target of one assay is T1, dopamine D2 receptor (Homo sapiens, UniProt P14416).
T1 construct: expressed in transfected cells; host or cells: Human embryonic kidney-293 cells
T1 sequence (P14416 whole entry): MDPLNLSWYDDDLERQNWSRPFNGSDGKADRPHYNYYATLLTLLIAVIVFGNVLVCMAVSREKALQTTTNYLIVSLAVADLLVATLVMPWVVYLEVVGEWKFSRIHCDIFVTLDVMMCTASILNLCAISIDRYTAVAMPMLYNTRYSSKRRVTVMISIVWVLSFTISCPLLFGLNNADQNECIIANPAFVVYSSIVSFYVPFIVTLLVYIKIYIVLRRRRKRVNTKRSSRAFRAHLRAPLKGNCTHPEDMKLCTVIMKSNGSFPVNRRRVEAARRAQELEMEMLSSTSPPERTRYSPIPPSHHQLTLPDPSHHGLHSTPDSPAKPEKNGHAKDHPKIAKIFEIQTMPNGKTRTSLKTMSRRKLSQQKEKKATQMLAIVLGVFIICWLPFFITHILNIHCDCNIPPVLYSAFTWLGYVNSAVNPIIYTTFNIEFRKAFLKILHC
The assay can be described thus: Competitive inhibition test using radioligands ([3H]-sulpiride), D2 receptor. To be noted: for D2 Receptor Displacement (%) / inhibition: [3H]-sulpiride; for inhibition: read-out: D2 Receptor Displacement (%); for Ki: [3H]-sulpiride competition, HEK-293 cells, read-out: KiD2R. In kind it is binding.

The target in assay [1] is T2, dopamine D3 receptor (Homo sapiens, UniProt P35462).
T2 sequence (P35462 whole entry): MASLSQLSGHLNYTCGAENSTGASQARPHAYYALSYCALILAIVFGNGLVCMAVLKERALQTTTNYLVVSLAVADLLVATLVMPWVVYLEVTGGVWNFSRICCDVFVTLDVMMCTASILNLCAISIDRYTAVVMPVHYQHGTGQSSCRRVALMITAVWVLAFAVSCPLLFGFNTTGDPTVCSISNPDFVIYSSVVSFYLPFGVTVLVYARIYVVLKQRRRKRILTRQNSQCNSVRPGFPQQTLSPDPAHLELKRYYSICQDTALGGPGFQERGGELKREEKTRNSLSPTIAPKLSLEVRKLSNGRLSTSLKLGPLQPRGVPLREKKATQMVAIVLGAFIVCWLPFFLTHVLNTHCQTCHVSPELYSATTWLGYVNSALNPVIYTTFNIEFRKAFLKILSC
Procedure: (§1) Human embryonic kidney-293 cells were cultured in fresh MEM medium containing 10% fetal bovine serum, 100 units of penicillin, and 100 μg/mL streptomycin at 37° C. under 5% CO2. Cells were transfected with DNA plasmids of dopamine D2 and D3 receptors respectively by using polyethylenimine. After transfection for 4 hours, medium was replaced with fresh MEM medium containing fetal bovine serum and the cells were further cultured for 24 hours. The cells were seeded into 24-well plates and cultured for 14-16 hours or overnight. After the medium was discarded, the cells were rinsed with pre-cooled serum-free MEM. Radioligand ([^3H]-sulpiride) and various concentrations of compounds were added into the adherent cells, and incubated in a bath at 4° C. for 150 minutes. The cells were rinsed three times with pre-cooled MEM containing 10 mM HEPES to remove unbound ligands. After the medium was completely removed, the cells were lysed with 1% sodium lauryl sulfate. The remaining radioligands were detected with a liquid scintillation counter to calculate the relative amount of bound compounds.
Assay [2] has as its target T2, dopamine D3 receptor. Nature of the assay: cell-based.
Procedure: as §1
The mark [3] stands for this setting: arylpiperazine-phthalimide compounds at 100 nM, HEK-293 cells (Table 1).
Where [4] appears, read: arylpiperazine-arylurea compounds at 100 nM, HEK-293 cells (Table 2).

Procedure for dopamine D2 receptor: as §1

`O=C1c2ccccc2C(=O)N1CCCCN1CCN(c2ccc(Cl)cc2)CC1` [3i•HCl, 2-(4-(4-(4-chlorophenyl)piperazin-1-yl)butyl)isoindoline-1,3-dione]: the “D2 Receptor Displacement (%)” value on dopamine D2 receptor (setting [3]) is recorded as 16.3 ± 4.2%. For `O=C1c2ccccc2C(=O)N1CCCCN1CCN(c2ccc(Cl)cc2Cl)CC1` [3k•HCl, 2-(4-(4-(2,4-dichlorophenyl)piperazin-1-yl)butyl)isoindoline-1,3-dione], the inhibition on dopamine D2 receptor (setting [3]) amounted to 30.2 ± 3.4%. Turning to `O=C1c2ccccc2C(=O)N1CCCCN1CCN(c2cccc(C(F)(F)F)c2)CC1` [3p•HCl, 2-(4-(4-(3-(trifluoromethyl)phenyl)piperazin-1-yl)butyl)isoindoline-1,3-dione], on dopamine D2 receptor (setting [3]), the “D2 Receptor Displacement (%)” value worked out at 37.9 ± 2.8%.

Consider `O=C(NCCCCN1CCN(c2ccc(Cl)cc2)CC1)Nc1ccc2ccccc2n1` [7i•HCl, 1-(4-(4-(4-chlorophenyl)piperazin-1-yl)butyl)-3-(quinolin-2-yl)urea], for which the inhibition on dopamine D2 receptor (setting [4]) came out at 13.4 ± 8.5%. `O=C(NCCCCN1CCN(c2cccc(Cl)c2Cl)CC1)Nc1cnc2ccccc2c1` [8j•HCl, 1-(4-(4-(2,3-dichlorophenyl)piperazin-1-yl)butyl)-3-(quinolin-3-yl)urea]: at dopamine D2 receptor (setting [4]), the inhibition was found to be 4.8 ± 4.3%.

For the molecule `O=C(NCCCCN1CCN(c2cc(C(F)(F)F)ccc2F)CC1)Nc1cnc2ccccc2c1` [8n•HCl, 1-(4-(4-(2-fluoro-5-(trifluoromethyl)phenyl)piperazin-1-yl)butyl)-3-(quinolin-3-yl)urea], the “D2 Receptor Displacement (%)” value at dopamine D2 receptor (setting [4]) is reported as 10.7 ± 4.0%. On to `O=C(NCCCCN1CCN(c2cccc(C(F)(F)F)c2)CC1)Nc1cnc2ccccc2c1` [8p•HCl, 1-(4-(4-(3-(trifluoromethyl)phenyl)piperazin-1-yl)butyl)-3-(quinolin-3-yl)urea], for which, at dopamine D2 receptor (setting [4]), the “D2 Receptor Displacement (%)” value came to 84.1 ± 1.8%. On to `O=C(NCCCCN1CCN(c2ccc(Cl)cc2)CC1)Nc1nc2ccccc2s1` [21i•HCl, 1-(benzothiazol-2-yl)-3-(4-(4-(4-chlorophenyl)piperazin-1-yl)butyl)urea], for which the “D2 Receptor Displacement (%)” value at dopamine D2 receptor (setting [4]) was determined as 33.4 ± 5.9%. For `O=C(NCCCCN1CCN(c2cccc(Cl)c2Cl)CC1)Nc1nc2ccccc2s1` [21j•HCl, 1-(benzothiazol-2-yl)-3-(4-(4-(2,3-dichlorophenyl)piperazin-1-yl)butyl)urea], at dopamine D2 receptor (setting [4]), the “D2 Receptor Displacement (%)” value turned out to be 52.1 ± 2.0%.

As to `O=C(NCCCCN1CCN(c2ccc(Cl)cc2Cl)CC1)Nc1nc2ccccc2s1` [21k•HCl, 1-(benzothiazol-2-yl)-3-(4-(4-(2,4-dichlorophenyl)piperazin-1-yl)butyl)urea], the “D2 Receptor Displacement (%)” value on dopamine D2 receptor (setting [4]) is listed as 19.0 ± 1.4%. Take `O=C(NCCCCN1CCN(c2cccc(Cl)c2Cl)CC1)c1cc2ccccc2[nH]1` [31j•HCl, N-(4-(4-(2,3-dichlorophenyl)piperazin-1-yl)butyl)-1H-indole-2-carboxamide, reference compound]: the Ki on dopamine D3 receptor [1] worked out at 15.6 nM. As to `O=C(NCCCCN1CCN(c2ccc(Cl)cc2Cl)CC1)c1cc2ccccc2[nH]1` [31k•HCl, N-(4-(4-(2,4-dichlorophenyl)piperazin-1-yl)butyl)-1H-indole-2-carboxamide, reference compound], the Ki at dopamine D2 receptor was above 23900 nM. As for `O=C1c2ccccc2C(=O)N1CCCCN1CCN(c2ccccc2F)CC1` [Compound 3a, 2-(4-(4-(2-fluorophenyl)piperazin-1-yl)butyl)isoindoline-1,3-dione], the inhibition on dopamine D2 receptor (setting [3]) was found to be 31.8 ± 3.3%. The same measure, in the same setting: under `O=C1c2ccccc2C(=O)N1CCCCN1CCN(c2ccc(F)cc2)CC1` [Compound 3c, 2-(4-(4-(4-fluorophenyl)piperazin-1-yl)butyl)isoindoline-1,3-dione] stands -6.3 ± 4%. Consider `O=C1c2ccccc2C(=O)N1CCCCN1CCN(c2cccc(F)c2F)CC1` [Compound 3d, 2-(4-(4-(2,3-fluorophenyl)piperazin-1-yl)butyl)isoindoline-1,3-dione], for which the values for the Ki on dopamine D2 receptor and at dopamine D3 receptor [1] were 2160 nM and 19.3 nM, respectively. Moreover, the “D2 Receptor Displacement (%)” value on dopamine D2 receptor (setting [3]) came to 17.7 ± 3.7%. In the case of `O=C1c2ccccc2C(=O)N1CCCCN1CCN(c2ccc(F)cc2F)CC1` [Compound 3e, 2-(4-(4-(2,4-fluorophenyl)piperazin-1-yl)butyl)isoindoline-1,3-dione], the “D2 Receptor Displacement (%)” value on dopamine D2 receptor (setting [3]) is on record as 4.8 ± 6.5%. The same measure, in the same setting: under `O=C1c2ccccc2C(=O)N1CCCCN1CCN(c2c(F)cccc2F)CC1` [Compound 3f, 2-(4-(4-(2,6-fluorophenyl)piperazin-1-yl)butyl)isoindoline-1,3-dione] stands 10.3 ± 6.1%. For the molecule `O=C1c2ccccc2C(=O)N1CCCCN1CCN(c2ccccc2Cl)CC1` [Compound 3g, 2-(4-(4-(2-chlorophenyl)piperazin-1-yl)butyl)isoindoline-1,3-dione], the inhibition at dopamine D2 receptor (setting [3]) turned out to be 28.7 ± 3.3%. Still for that read-out and setting: under `O=C1c2ccccc2C(=O)N1CCCCN1CCN(c2cccc(Cl)c2)CC1` [Compound 3h, 2-(4-(4-(3-chlorophenyl)piperazin-1-yl)butyl)isoindoline-1,3-dione] stands 64.8 ± 3.5%. For the molecule `O=C1c2ccccc2C(=O)N1CCCCN1CCN(c2ccc(Cl)cc2)CC1` [Compound 3i, 2-(4-(4-(4-chlorophenyl)piperazin-1-yl)butyl)isoindoline-1,3-dione], the “D2 Receptor Displacement (%)” value on dopamine D2 receptor (setting [3]) was 59.2 ± 18.3%.

For the molecule `O=C1c2ccccc2C(=O)N1CCCCN1CCN(c2cccc(Cl)c2Cl)CC1` [Compound 3j, 2-(4-(4-(2,3-dichlorophenyl)piperazin-1-yl)butyl)isoindoline-1,3-dione], the inhibition on dopamine D2 receptor (setting [3]) was 70.3 ± 2.7%. The same measure, in the same setting: under `O=C1c2ccccc2C(=O)N1CCCCN1CCN(c2ccc(Cl)cc2F)CC1` [Compound 3m, 2-(4-(4-(4-chloro-2-fluorophenyl)piperazin-1-yl)butyl)isoindoline-1,3-dione] stands 2.8 ± 12%. The same measure, in the same setting: under `O=C1c2ccccc2C(=O)N1CCCCN1CCN(c2cc(C(F)(F)F)ccc2F)CC1` [Compound 3n, 2-(4-(4-(2-fluoro-5-(trifluoromethyl)phenyl)piperazin-1-yl)butyl)isoindoline-1,3-dione] stands -4.7 ± 7.8%; under `O=C1c2ccccc2C(=O)N1CCCCN1CCN(c2cccc(C(F)(F)F)c2)CC1` [Compound 3p, 2-(4-(4-(3-(trifluoromethyl)phenyl)piperazin-1-yl)butyl)isoindoline-1,3-dione], 44 ± 1.6%. As to `O=C(NCCCCN1CCN(c2cc(C(F)(F)F)ccc2F)CC1)Nc1cnc2ccccc2c1` [Compound 8n, 1-(4-(4-(2-fluoro-5-(trifluoromethyl)phenyl)piperazin-1-yl)butyl)-3-(quinolin-3-yl)urea], the “D2 Receptor Displacement (%)” value on dopamine D2 receptor (setting [4]) worked out at 24.9 ± 1.8%. Still for that read-out and setting: under `O=C(NCCCCN1CCN(c2cccc(C(F)(F)F)c2)CC1)Nc1cnc2ccccc2c1` [Compound 8p, 1-(4-(4-(3-(trifluoromethyl)phenyl)piperazin-1-yl)butyl)-3-(quinolin-3-yl)urea] stands −6.7 ± 4.2%. Consider `O=C(NCCCCN1CCN(c2ccc(Cl)cc2)CC1)Nc1cc2ccccc2cn1` [Compound 11i, 1-(4-(4-(4-chlorophenyl)piperazin-1-yl)butyl)-3-(isoquinolin-3-yl)urea], for which the inhibition on dopamine D2 receptor (setting [4]) is -14.7 ± 1.8%. As to `O=C(NCCCCN1CCN(c2ccc(Cl)cc2)CC1)Nc1nc2ccccc2s1` [Compound 21i, 1-(benzothiazol-2-yl)-3-(4-(4-(4-chlorophenyl)piperazin-1-yl)butyl)urea], the inhibition at dopamine D2 receptor (setting [4]) amounted to 36.8 ± 6.5%. With `O=C(NCCCCN1CCN(c2cccc(Cl)c2Cl)CC1)Nc1nc2ccccc2s1` [Compound 21j, 1-(benzothiazol-2-yl)-3-(4-(4-(2,3-dichlorophenyl)piperazin-1-yl)butyl)urea], the inhibition on dopamine D2 receptor (setting [4]) was 35.5 ± 3.4%. Regarding `O=C(NCCCCN1CCN(c2ccc(Cl)cc2Cl)CC1)Nc1nc2ccccc2s1` [Compound 21k, 1-(benzothiazol-2-yl)-3-(4-(4-(2,4-dichlorophenyl)piperazin-1-yl)butyl)urea], the “D2 Receptor Displacement (%)” value on dopamine D2 receptor (setting [4]) was 40.8 ± 5.6%.

As to `O=C(NCCCCN1CCN(c2cccc(Cl)c2Cl)CC1)c1cc2ccccc2[nH]1` [Compound 31j, N-(4-(4-(2,3-dichlorophenyl)piperazin-1-yl)butyl)-1H-indole-2-carboxamide, reference compound], the Ki at dopamine D3 receptor [2] turned out to be 6210 nM. `CCN1CCCC1CNC(=O)c1cc(S(N)(=O)=O)ccc1OC` (stereo not shown) [sulpiride, reference compound]: the inhibition on dopamine D2 receptor (setting [3]) stood at 92.2 ± 0.1%.
